Source: PubChem BioAssay (NCI)
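Each compound was tested at five concentrations against cells in 96-well plates for 48 hours. GI50 is the concentration that inhibits growth by half. Definition used: TGI = concentration required for complete inhibition of growth.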

The compounds below were run on 786-0 renal (assay: DTP human tumour cell line panel, 48 h).
`Fc1cc(-c2nnc3n2N=C(c2ccc(Cl)cc2)CS3)c(Cl)cc1Cl` was tested, and the GI50 was 2.08 µM and the TGI was 3.55 µM. For `COC1=CC(=O)C(C2(OC(C)C)OC(=O)C(Cl)=C2Cl)=CC1=O` (stereo not given), the TGI was 86.4 µM. `O=C(NC1C=CCC2C(=O)N(c3ccccc3)C(=O)C12)OCc1ccccc1` (stereo not given) showed a TGI greater than 100 µM. With `CN1C(=O)C(=O)N2c3ccc(Cl)cc3C3(c4ccccc4)N=CC12O3` (stereo not given) the TGI was 28.9 µM. `NCCNCCNCCN` showed a GI50 greater than 100 µM and a TGI greater than 100 µM. `COc1ccc(C(c2cc(OC)c(OC)c(OC)c2)n2cncn2)cc1O` (stereo not given) was tested, and the GI50 was 0.474 µM and the TGI was greater than 100 µM. `N#CCCC[Si]12OCCN(CCO1)CCO2` gave a TGI greater than 100 µM. Work on `CN1CCN(c2ccc(Nc3ncc(Cl)c(NC[C@@H]4CCCO4)n3)cc2)CC1` yielded a GI50 of 1.68 µM and a TGI of 15.1 µM.

These compounds were tested on NCI-H460 lung (assay: DTP human tumour cell line panel, 48 h).
For `COc1cc(-c2nc3sccn3c2-c2ccnc(NCCNS(=O)(=O)c3ccc(F)cc3)n2)ccc1F`, the GI50 was 2.44 µM and the TGI was greater than 100 µM. `CN(C)CC(O)c1ccc(/C=C/c2ccc(Cl)cc2)cc1` (stereo not given) gave a GI50 of 1.45 µM and a TGI of 2.75 µM. For `Cc1nnc2ccnn2c1C`, the GI50 was greater than 100 µM and the TGI was greater than 100 µM. `CCOC(=O)C1=C(C)N(NC(=O)Nc2ccccc2)C2(N)N(NC(=O)Nc3ccccc3)C(C)=C(C(=O)OCC)C12C(=O)OCC` (stereo not given) was tested, and the TGI was greater than 100 µM. Work on `Cn1cc(-c2cc3c(N4CCN(c5ncc([C@@](C)(N)c6ccc(F)cc6)cn5)CC4)ncnn3c2)cn1` yielded a GI50 of 4.41 µM and a TGI greater than 100 µM. Compound `O=C(O)CSc1n[nH]c(-c2ccccc2O)n1` has a TGI greater than 100 µM. With `CN(C)C=Nc1nc(=O)n(C2CCC(CO)O2)cc1F` (stereo not given) the TGI was greater than 100 µM. Compound `COc1cc2c(cc1OC)-c1cc(OC)c(OC)cc1C(CN(C)C)C2` (stereo not given) has a GI50 greater than 10 µM and a TGI greater than 10 µM. Work on `O=c1[nH]c(-c2ccccc2)nc2cc(Cl)ccc12` yielded a TGI greater than 100 µM. `O=C(NC1CCCCC1)NS(=O)(=O)c1ccc(N2N=C3c4ccccc4CC3C2c2ccc(Cl)cc2)cc1` (stereo not given) was tested, and the GI50 was 4.45 µM and the TGI was 30.6 µM. `CCCOc1nc(N)c2cnn(C3CCCCO3)c2n1` (stereo not given) showed a TGI greater than 100 µM. `C/C(CN1C(=O)c2ccccc2C1=O)=N\NS(=O)(=O)c1ccc(Cl)cc1` gave a TGI greater than 100 µM. With `C[C@@H]1CC[C@H]2C(C)(C)[C@H]3C[C@@]12CC[C@@]3(C)O` the TGI was 34.9 µM. `Cc1ccc(NC2=C3CCCCC3OC2=O)cc1` (stereo not given) showed a GI50 greater than 100 µM and a TGI greater than 100 µM. `CN(C)CC1CCC/C1=N/OC(=O)c1ccccc1` (stereo not given) showed a TGI greater than 100 µM. `CC(C)[C@@H]1NC(=O)[C@]2(C)CSC(=N2)c2ccnc(c2)CNC(=O)C[C@@H](/C=C/CCS)OC1=O` gave a GI50 of less than 0.0253 µM and a TGI greater than 100 µM. Work on `Fc1cc(-c2nnc3n2N=C(c2ccc(Cl)cc2)CS3)c(Cl)cc1Cl` yielded a GI50 of 18.2 µM and a TGI of 37.4 µM. For `COC1=CC(=O)C(C2(OC(C)C)OC(=O)C(Cl)=C2Cl)=CC1=O` (stereo not given), the TGI was greater than 100 µM. Work on `O=C(NC1C=CCC2C(=O)N(c3ccccc3)C(=O)C12)OCc1ccccc1` (stereo not given) yielded a TGI greater than 100 µM. For `CN1C(=O)C(=O)N2c3ccc(Cl)cc3C3(c4ccccc4)N=CC12O3` (stereo not given), the TGI was 25.8 µM. Work on `NCCNCCNCCN` yielded a GI50 greater than 100 µM and a TGI greater than 100 µM. Work on `COc1ccc(C(c2cc(OC)c(OC)c(OC)c2)n2cncn2)cc1O` (stereo not given) yielded a GI50 of 0.414 µM and a TGI greater than 100 µM. `N#CCCC[Si]12OCCN(CCO1)CCO2` was tested, and the TGI was greater than 100 µM. Compound `CN1CCN(c2ccc(Nc3ncc(Cl)c(NC[C@@H]4CCCO4)n3)cc2)CC1` has a GI50 of 0.573 µM and a TGI of 6.55 µM.

These compounds were tested on KM12 colon (assay: DTP human tumour cell line panel, 48 h).
`COc1cc(-c2nc3sccn3c2-c2ccnc(NCCNS(=O)(=O)c3ccc(F)cc3)n2)ccc1F` was tested, and the GI50 was 1.9 µM and the TGI was greater than 100 µM. In the case of `C#Cc1cccc(Nc2nc3cc([N+](=O)[O-])ccc3nc2Nc2ccc(O)cc2)c1`, the GI50 was 1.83 µM and the TGI was 3.89 µM. With `CN(C)CC(O)c1ccc(/C=C/c2ccc(Cl)cc2)cc1` (stereo not given) the GI50 was 1.66 µM and the TGI was 3.03 µM. Work on `Cc1nnc2ccnn2c1C` yielded a GI50 greater than 100 µM and a TGI greater than 100 µM. With `CCOC(=O)C1=C(C)N(NC(=O)Nc2ccccc2)C2(N)N(NC(=O)Nc3ccccc3)C(C)=C(C(=O)OCC)C12C(=O)OCC` (stereo not given) the TGI was greater than 100 µM. `Cn1cc(-c2cc3c(N4CCN(c5ncc([C@@](C)(N)c6ccc(F)cc6)cn5)CC4)ncnn3c2)cn1` gave a GI50 of 3.49 µM and a TGI greater than 100 µM. For `CN(C)C=Nc1nc(=O)n(C2CCC(CO)O2)cc1F` (stereo not given), the TGI was greater than 100 µM. With `COc1cc2c(cc1OC)-c1cc(OC)c(OC)cc1C(CN(C)C)C2` (stereo not given) the GI50 was greater than 10 µM and the TGI was greater than 10 µM. `O=c1[nH]c(-c2ccccc2)nc2cc(Cl)ccc12` was tested, and the TGI was greater than 100 µM. For `O=C(NC1CCCCC1)NS(=O)(=O)c1ccc(N2N=C3c4ccccc4CC3C2c2ccc(Cl)cc2)cc1` (stereo not given), the GI50 was 7.9 µM and the TGI was 27.9 µM. With `CCCOc1nc(N)c2cnn(C3CCCCO3)c2n1` (stereo not given) the TGI was greater than 100 µM. `C/C(CN1C(=O)c2ccccc2C1=O)=N\NS(=O)(=O)c1ccc(Cl)cc1` was tested, and the TGI was greater than 100 µM. With `C[C@@H]1CC[C@H]2C(C)(C)[C@H]3C[C@@]12CC[C@@]3(C)O` the TGI was greater than 100 µM. Compound `COc1ccc(/C=C/COC(C)=O)cc1OC` has a TGI greater than 100 µM. `Cc1ccc(NC2=C3CCCCC3OC2=O)cc1` (stereo not given) gave a GI50 greater than 100 µM and a TGI greater than 100 µM. With `CC(C)[C@@H]1NC(=O)[C@]2(C)CSC(=N2)c2ccnc(c2)CNC(=O)C[C@@H](/C=C/CCS)OC1=O` the GI50 was 0.0857 µM and the TGI was greater than 86.1 µM. With `Fc1cc(-c2nnc3n2N=C(c2ccc(Cl)cc2)CS3)c(Cl)cc1Cl` the GI50 was 13.1 µM and the TGI was 36.4 µM. `COC1=CC(=O)C(C2(OC(C)C)OC(=O)C(Cl)=C2Cl)=CC1=O` (stereo not given) was tested, and the TGI was greater than 100 µM. `O=C(NC1C=CCC2C(=O)N(c3ccccc3)C(=O)C12)OCc1ccccc1` (stereo not given) was tested, and the TGI was greater than 100 µM. For `CN1C(=O)C(=O)N2c3ccc(Cl)cc3C3(c4ccccc4)N=CC12O3` (stereo not given), the TGI was 13.7 µM. With `NCCNCCNCCN` the GI50 was greater than 100 µM and the TGI was greater than 100 µM. In the case of `COc1ccc(C(c2cc(OC)c(OC)c(OC)c2)n2cncn2)cc1O` (stereo not given), the GI50 was 0.418 µM and the TGI was greater than 100 µM. `N#CCCC[Si]12OCCN(CCO1)CCO2` gave a TGI greater than 100 µM. `CN1CCN(c2ccc(Nc3ncc(Cl)c(NC[C@@H]4CCCO4)n3)cc2)CC1` was tested, and the GI50 was 0.362 µM and the TGI was 11.7 µM.
